Measurements from PMC6099690, “TRPA1 Modulating C14 Polyacetylenes from the Iranian Endemic Plant Echinophora platyloba” (Molecules : A Journal of Synthetic Chemistry and Natural …, 2018).

Legend:
[1] = target: T1, rat TRPA1 (Rattus norvegicus, UniProt Q6RI86); assay: Antagonist/desensitizing assay: inhibition of AITC (100 μM)-induced [Ca2+]i elevation in rTRPA1-HEK293 cells; type: cell-based; conditions: compound added 5 min before stimulation with AITC 100 μM; HEK293 cells transfected with rTRPA1; read-out: IC50 inh TRPA1 (AITC 100 μM)
T1 construct: expressed in transfected cells
Protocol: HEK-293 cells stably over-expressing recombinant rat TRPA1, TRPM8, TRPV2-4, TRPM8 or human TRPV1 were selected by Geneticin 600 μg mL^−1, grown on 100-mm diameter Petri dishes as monolayers in minimum essential medium supplemented with non-essential amino acids, 10% fetal bovine serum, and 2 mM glutamine, and maintained under 5% CO2 at 37 °C. Stable expression of each channel was checked by quantitative real time-PCR. The effect of the substances on intracellular Ca^2+ concentration [Ca^2+]i was determined using Fluo-4, a selective intracellular fluorescent probe for Ca^2+. Toward this aim, on the day of the experiment, cells over-expressing the TRP channels were loaded for 1 h in the dark at room temperature with the methyl ester Fluo4-AM (4 μM in DMSO containing 0.02% Pluronic F-127, Invitrogen, Carlsbad, CA, USA) in minimum essential medium without fetal bovine serum. After the loading, cells were washed twice in Tyrode’s buffer (145 mM NaCl, 2.5 mM KCl, 1.5 mM CaCl2, 1.2 mM MgCl2, 10 mM D-glucose, and 10 mM HEPES, pH 7.4), re-suspended in Tyrode’s buffer, and transferred (about 100,000 cells) to the quartz cuvette of the spectrofluorimeter (Perkin-Elmer LS50B; PerkinElmer Life and Analytical Sciences, Waltham, MA, USA) under continuous stirring. [Ca^2+]i was determined before and after the addition of various concentrations of test compounds by measuring cell fluorescence at 25 °C (λEX = 488 nm, λEM = 516 nm). Curve fitting (sigmoidal dose-response variable slope) and parameter estimation were performed with GraphPad Prism® (GraphPad Software Inc., San Diego, CA, USA). […] Antagonist/desensitizing behavior was evaluated for TRPA1 by adding the test compounds in the quartz cuvette 5 min before stimulation of cells with the agonist AITC (100 μM). Data are expressed as the concentration exerting a half maximal inhibition of agonist-induced [Ca^2+]i elevation (IC50), which was calculated again using GraphPad Prism® software. […]

[2] = target: T1, rat TRPA1; assay: Calcium influx (Fluo-4 fluorimetric) agonist assay in HEK293 cells transfected with rTRPA1; type: cell-based; conditions: for EC50: half-maximal increase in [Ca2+]i, read-out: Potency EC50; for Efficacy: maximum [Ca2+]i elevation as % of allylisothiocyanate (AITC) at 100 μM
Protocol: HEK-293 cells stably over-expressing recombinant rat TRPA1, TRPM8, TRPV2-4, TRPM8 or human TRPV1 were selected by Geneticin 600 μg mL^−1, grown on 100-mm diameter Petri dishes as monolayers in minimum essential medium supplemented with non-essential amino acids, 10% fetal bovine serum, and 2 mM glutamine, and maintained under 5% CO2 at 37 °C. Stable expression of each channel was checked by quantitative real time-PCR. The effect of the substances on intracellular Ca^2+ concentration [Ca^2+]i was determined using Fluo-4, a selective intracellular fluorescent probe for Ca^2+. Toward this aim, on the day of the experiment, cells over-expressing the TRP channels were loaded for 1 h in the dark at room temperature with the methyl ester Fluo4-AM (4 μM in DMSO containing 0.02% Pluronic F-127, Invitrogen, Carlsbad, CA, USA) in minimum essential medium without fetal bovine serum. After the loading, cells were washed twice in Tyrode’s buffer (145 mM NaCl, 2.5 mM KCl, 1.5 mM CaCl2, 1.2 mM MgCl2, 10 mM D-glucose, and 10 mM HEPES, pH 7.4), re-suspended in Tyrode’s buffer, and transferred (about 100,000 cells) to the quartz cuvette of the spectrofluorimeter (Perkin-Elmer LS50B; PerkinElmer Life and Analytical Sciences, Waltham, MA, USA) under continuous stirring. [Ca^2+]i was determined before and after the addition of various concentrations of test compounds by measuring cell fluorescence at 25 °C (λEX = 488 nm, λEM = 516 nm). Curve fitting (sigmoidal dose-response variable slope) and parameter estimation were performed with GraphPad Prism® (GraphPad Software Inc., San Diego, CA, USA). Potency was expressed as the concentration of test substances exerting a half-maximal agonist effect (i.e., half-maximal increases in [Ca^2+]i (EC50), calculated by using GraphPad®. The efficacy of the agonists was first determined by normalizing their effect to the maximum Ca^2+ influx effect on [Ca^2+]i observed with application of 4 μM ionomycin (Sigma, St. Louis, MO, USA). The increases in fluorescence in wild-type HEK293 cells (i.e., not transfected with any construct) were used as baseline and subtracted from the values obtained from transfected cells. The effects of TRPA1 agonists are expressed as a percentage of the effect obtained with 100 μM allyl isothiocyanate (AITC). Antagonist/desensitizing behavior was evaluated for TRPA1 by adding the test compounds in the quartz cuvette 5 min before stimulation of cells with the agonist AITC (100 μM). Data are expressed as the concentration exerting a half maximal inhibition of agonist-induced [Ca^2+]i elevation (IC50), which was calculated again using GraphPad Prism® software. The effect on [Ca^2+]i exerted by agonist alone was taken as 100%. Dose-response curves were fitted by a sigmoidal regression with variable slope. All determinations were at least performed in triplicate. Statistical analysis of the data was performed by analysis of variance at each point using ANOVA followed by Bonferroni’s test.

T1 sequence (Q6RI86 whole entry): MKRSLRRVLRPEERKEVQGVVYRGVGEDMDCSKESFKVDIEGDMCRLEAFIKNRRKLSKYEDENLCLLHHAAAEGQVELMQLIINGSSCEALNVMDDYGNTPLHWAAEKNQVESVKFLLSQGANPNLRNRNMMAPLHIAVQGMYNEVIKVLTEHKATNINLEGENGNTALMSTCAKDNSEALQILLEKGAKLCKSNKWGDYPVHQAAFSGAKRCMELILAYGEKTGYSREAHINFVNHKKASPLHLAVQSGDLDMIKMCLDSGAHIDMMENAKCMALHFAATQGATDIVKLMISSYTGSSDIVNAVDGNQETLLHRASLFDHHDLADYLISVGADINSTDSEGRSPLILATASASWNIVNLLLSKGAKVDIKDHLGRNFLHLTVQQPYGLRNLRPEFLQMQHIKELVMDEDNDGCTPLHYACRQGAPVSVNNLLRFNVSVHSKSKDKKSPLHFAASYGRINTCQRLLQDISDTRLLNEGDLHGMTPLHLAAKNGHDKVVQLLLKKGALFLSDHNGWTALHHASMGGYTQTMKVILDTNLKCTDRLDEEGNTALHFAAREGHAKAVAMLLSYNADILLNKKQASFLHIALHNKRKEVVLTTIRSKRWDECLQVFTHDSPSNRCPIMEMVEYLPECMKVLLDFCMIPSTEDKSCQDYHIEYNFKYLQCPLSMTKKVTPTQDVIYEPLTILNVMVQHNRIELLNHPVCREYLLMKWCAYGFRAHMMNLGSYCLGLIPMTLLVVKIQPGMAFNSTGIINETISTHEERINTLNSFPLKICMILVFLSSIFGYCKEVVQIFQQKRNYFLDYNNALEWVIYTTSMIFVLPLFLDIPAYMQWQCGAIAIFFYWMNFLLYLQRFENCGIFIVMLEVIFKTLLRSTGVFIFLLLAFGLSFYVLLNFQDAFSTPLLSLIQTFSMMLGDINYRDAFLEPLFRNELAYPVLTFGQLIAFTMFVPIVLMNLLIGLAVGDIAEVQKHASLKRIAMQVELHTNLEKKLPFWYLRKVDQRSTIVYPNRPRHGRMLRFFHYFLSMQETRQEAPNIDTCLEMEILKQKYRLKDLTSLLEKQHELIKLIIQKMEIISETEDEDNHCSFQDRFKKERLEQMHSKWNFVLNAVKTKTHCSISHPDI

EC50 [2] [µM]	Efficacy [2] [% AITC]	Efficacy ([2]; listed as 5)	Efficacy ([2]; listed as 3)	Efficacy ([2]; listed as 4)	Compound	IC50 [1] [µM]
20.3 ± 3.2	81.0 ± 3.3	about 80 % AITC	–	–	CCCC#CC#CCCc1cccc(=O)o1 [Echinophorin A (5), echinophorin A]	45.7 ± 3.5
30.9 ± 2.8	51.7 ± 1.3	–	about 52 % AITC	–	CC#CC#CC#CCCc1cccc(=O)o1 [Echinophorin D (3), echinophorin D]	87 ± 1.5
25 ± 3	82.0 ± 2.8	–	–	about 80 % AITC	C/C=C\C#CC#CCCc1cccc(=O)o1 [Echinophorin B (4), echinophorin B]	37.2 ± 0.8
